Values quoted from earlier work in patent publication US6468963B1, “Methods and formulations for reducing toxicity associated with diabetes treatments” (BioNumerik Pharmaceuticals, Inc., priority 2000, dated 2002).

Key:
[1] = accepted value; species not stated
mice = settings: doses higher than 3750 mg/kg (accepted LD50 for common table salt)
dogs = settings: doses higher than 3750 mg/kg (accepted LD50 for common table salt)
humans = settings: doses exceeding 40 g/m^2

SMILES: [Cl-].[Na+] [common table salt]
- LD50 [1]: 3750 mg/kg

SMILES: O=S(=O)([O-])CCSSCCS(=O)(=O)[O-].[Na+].[Na+] [Dimesna, disodium 2,2′-dithiobis ethane sulfonate]
- adverse effects (mice): no adverse effects
- adverse effects (dogs): no adverse effects
- adverse effects (humans): no adverse effects
